Data published in patent publication US6465433B1, “Boronic ester and acid compounds, synthesis and uses” (Millennium Pharmaceuticals, Inc., priority 1994, dated 2002).
Where a SMILES comes first, the peptide text is derived from it. The star is where a group is joined. Cbz = O=C(OCc1ccccc1)*

Key:
[1] = target: SDS-activated 20S proteasome from rabbit muscle (Oryctolagus cuniculus, UniProt G1SU71+G1T4Q9); assay: Kinetic assay: inhibition of the 20S proteasome; type: biochemical
Procedure: (§1) P, AA^1, AA^2, AA^3, and Z^1 and Z^2 represent the structures present on formula (1) or (2). The protocol for the kinetic assay described in Tables II-V is as described in Rock et al., Cell 78:761-771 (1994). In these tables, Ki values are reported, which are dissociation constants for the equilibrium that is established when enzyme and inhibitor interact to form the enzyme:inhibitor complex. The reactions were performed using SDS-activated 20S proteasome from rabbit muscle. The substrate used was Suc-LLVY-AMC.

C2C12 cells = assay: Inhibition of protein degradation in C2C12 cells; type: cell-based, mouse; conditions: 35S-methionine labelled cells, percent decrease in TCA soluble radioactivity, media with 50% serum
Procedure: One approach to testing drug candidates for their ability to inhibit the ATP-ubiquitin-dependent degradative process is to measure proteolysis in cultured cells (Rock, et al., Cell 78:761 (1994)). For example, the degradation of long-lived intracellular proteins can be measured in mouse C2C12 myoblast cells. Cells are incubated with ^35S-methionine for 48 hours to label long-lived proteins and then chased for 2 hours with medium containing unlabeled methionine. After the chase period, the cells are incubated for 4 hours in the presence or absence of the test compound. The amount of protein degradation in the cell can be measured by quantitating the trichloroacetic acid soluble radioactivity released from the pre-labeled proteins into the growth medium (an indicator of intracellular proteolysis).
C2C12 cells (a mouse myoblast line) were labelled for 48 hrs with ^35S-methionine. The cells were then washed and preincubated for 2 hrs in the same media supplemented with 2 mM unlabelled methionine. The media was removed and replaced with a fresh aliquot of the preincubation media containing 50% serum, and a concentration of the compound to be tested. The media was then removed and made up to 10% TCA and centrifuged. The TCA soluble radioactivity was counted. Inhibition of proteolysis was calculated as the percent decrease in TCA soluble radioactivity.

Cathepsin B = Cathepsin B (Homo sapiens, UniProt P07858); assay: Kinetic assay: inhibition of Cathepsin B; type: biochemical; conditions: Table IV
Text: [Worded in the source for another target; this target is reported under the same test.] as §1, with “Table II summarizes results from kinetic experiments that measured the inhibition of the 20S proteasome by compounds having the formula of compound (1) or (2). P,” for “P,”

[2] = Table II, SDS-activated 20S proteasome from rabbit muscle, substrate Suc-LLVY-AMC

CC(C)C[C@H](NC(=O)[C@H](Cc1ccccc1)NC(=O)c1ccc2ccccc2n1)B(O)O [MG-314]
Ki [1, 2]: 0.19 nM | IC50 (C2C12 cells): 130 nM

CC(=O)N[C@@H](Cc1cccnc1)C(=O)N[C@@H](CC(C)C)B(O)O [MG-290]
Ki [1, 2]: 5.4 nM | IC50 (C2C12 cells): 10200 nM

CC(C)C[C@H](NC(=O)[C@H](CC(C)C)NC(=O)[C@H](CC(C)C)NC(=O)N1CCOCC1)B(O)O [MG-278]
Ki [1, 2]: 0.14 nM | IC50 (C2C12 cells; Mus musculus, C2C12): 7500 nM

CC(=O)N[C@@H](CC(C)C)C(=O)N[C@@H](CC(C)C)C(=O)N[C@@H](CC(C)C)B(O)O [MG-283]
Ki [1, 2]: 0.46 nM | IC50 (C2C12 cells; Mus musculus, C2C12): 3000 nM

CC(=O)N[C@@H](CC(C)C)C(=O)N[C@@H](CC(C)C)C(=O)N[C@H](C=O)CC(C)C [MG-154, reference compound] (Ac-Leu-Leu-Leu-aldehyde)
Ki (Cathepsin B): 5 nM | Ki ([1]; Table IV): 66 nM

CC(C)CC(NC(=O)C(Cc1ccc2ccccc2c1)NC(=O)OCc1ccccc1)B(O)O (stereo not shown) [MG-272]
Ki [1, 2]: 34 nM | IC50 (C2C12 cells): 6000 nM

CC(C)C[C@H](NC(=O)[C@H](Cc1ccc(O)cc1)NC(=O)N1CCOCC1)B(O)O [MG-307, N-(4-morpholine)carbonyl-L-tyrosine-L-leucine boronic acid]
Ki [1, 2]: 0.51 nM | IC50 (C2C12 cells): 4800 nM

N-Cbz-L-Leucine-L-leucine Boronic Acid [MG-274]
Ki [1, 2]: 3 nM | Ki ([1]; Table III, dipeptide boronic acid vs dipeptide aldehyde): 3 nM | IC50 (C2C12 cells): 340 nM

CC(C)C[C@H](NC(=O)[C@@H](N)Cc1ccccn1)B(O)O [MG-351]
Ki [1, 2]: 32 nM | IC50 (C2C12 cells): 8100 nM

CC(C)C[C@H](NC(=O)[C@H](Cc1cccc2ccccc12)NC(=O)c1ccc2ccccc2n1)B(O)O [MG-298]
Ki [1, 2]: 0.075 nM | IC50 (C2C12 cells): 230 nM

CC(=O)N[C@@H](Cc1c[nH]c2ccccc12)C(=O)N[C@@H](CC(C)C)B(O)O [MG-301]
Ki [1, 2]: 1.3 nM | IC50 (C2C12 cells): 1300 nM

CC(C)C[C@H](NC(=O)[C@H](Cc1ccccn1)NC(=O)C1CCCCC1)B(O)O [MG-346]
Ki [1, 2]: 1.1 nM | IC50 (C2C12 cells): 150 nM

CC(C)CC(C=O)NC(=O)C(CC(C)C)NC(=O)C(Cc1c[nH]c2ccccc12)NC(=O)OCc1ccccc1 (stereo not drawn) [MG-191, reference compound] (Cbz-Trp-Leu-Leu-aldehyde; configuration not given here)
Ki (Cathepsin B): 0.54 nM | Ki ([1]; Table IV): 0.38 nM

CC(C)C[C@H](NC(=O)[C@H](Cc1cccnc1)NS(C)(=O)=O)B(O)O [MG-289]
Ki [1, 2]: 6.3 nM | IC50 (C2C12 cells): 10800 nM

CC(C)C[C@H](NC(=O)[C@@H]1Cc2ccccc2CN1)B(O)O [MG-316]
Ki [1, 2]: 22 nM | IC50 (C2C12 cells; Mus musculus, C2C12): 21000 nM

CC(C)C[C@H](NC(=O)[C@H](Cc1ccc2ccccc2n1)NC(=O)N1CCOCC1)B(O)O [MG-315, N-(4-Morpholine)carbonyl-β-(2-quinolyl)-L-alanine-L-leucine Boronic Acid]
Ki [1, 2]: 2.2 nM | IC50 (C2C12 cells; Mus musculus, C2C12): 340 nM

CC(C)CC(NC(=O)C(Cc1ccc2ccccc2c1)NC(=O)N1CCOCC1)B(O)O (stereo not shown) [MG-308]
Ki [1, 2]: 0.72 nM | IC50 (C2C12 cells): 96 nM

CC(C)C[C@H](NC(=O)[C@H](Cc1ccccc1)NC(=O)NCc1ccccc1)B(O)O [MG-350]
Ki [1, 2]: 0.14 nM | IC50 (C2C12 cells): 160 nM

O=C(NC(Cc1ccccc1)B(O)O)C(Cc1cccc2ccccc12)NC(=O)N1CCOCC1 (stereo not shown) [MG-321]
Ki [1, 2]: 0.32 nM | IC50 (C2C12 cells): 2400 nM

CC(C)C[C@H](NC(=O)[C@@H]1CCCN1)B(O)O [MG-319]
Ki [1, 2]: 20 nM | IC50 (C2C12 cells; Mus musculus, C2C12): 14000 nM

β-(1-Naphthyl)-L-alanine-L-leucine Boronic Acid Hydrochloride Salt [MG-302]
Ki [1, 2]: 7.5 nM | IC50 (C2C12 cells): 270 nM

CC(C)C[C@H](NC(=O)[C@H](Cc1ccccc1)NC(=O)c1ccccn1)B(O)O [MG-343]
Ki [1, 2]: 0.42 nM | IC50 (C2C12 cells): 57 nM

CC(C)C[C@H](NC(=O)[C@H](Cc1cccc2ccccc12)NC(=O)C1CCCCC1)B(O)O [MG-329]
Ki [1, 2]: 0.03 nM | IC50 (C2C12 cells): 48 nM

CC(C)C[C@H](NC(=O)[C@H](Cc1ccccc1)NC(=O)c1cccnc1)B(O)O [MG-336, N-(3-pyridine)carbonyl-L-phenylalanine-L-leucine boronic acid]
Ki [1, 2]: 0.25 nM | IC50 (C2C12 cells; Mus musculus, C2C12): 100 nM

CC(C)CC(NC(=O)C(Cc1ccc2ncccc2c1)NC(=O)N1CCOCC1)B(O)O [MG-292, N-(4-Morpholine)carbonyl-β-(6-quinolinyl)-D, L-alanine-L-leucine Boronic Acid]
Ki [1, 2]: 6 nM | IC50 (C2C12 cells; Mus musculus, C2C12): 11300 nM

CC(C)C[C@H](NC(=O)[C@H](Cc1ccccn1)NC(=O)c1ccccc1)B(O)O [MG-345]
Ki [1, 2]: 0.76 nM | IC50 (C2C12 cells): 120 nM

β-(1-Naphthyl)-L-alanine-L-leucine Boronic Acid [MG-303]
Ki [1, 2]: 3.9 nM | IC50 (C2C12 cells): 340 nM

CC(C)C[C@H](NC(=O)[C@H](Cc1ccc(OCc2ccccc2)cc1)NC(=O)N1CCOCC1)B(O)O [MG-306, N-(4-Morpholine)carbonyl-(O-benzyl)-L-tyrosine-L-leucine Boronic Acid]
Ki [1, 2]: 0.23 nM | IC50 (C2C12 cells; Mus musculus, C2C12): 130 nM

CC(C)C[C@H](NC(=O)[C@H](Cc1c[nH]cn1)NC(=O)OCc1ccccc1)B(O)O [MG-282]
Ki [1, 2]: 25 nM | IC50 (C2C12 cells): 64000 nM

CC(C)CC(NC(=O)C(CCc1ccccc1)NC(=O)N1CCOCC1)B(O)O (stereo not shown) [MG-322]
Ki [1, 2]: 2.2 nM | IC50 (C2C12 cells): 380 nM

CN[C@@H](Cc1cccc2ccccc12)C(=O)N[C@@H](CC(C)C)B(O)O [MG-333]
Ki [1, 2]: 2.1 nM | IC50 (C2C12 cells; Mus musculus, C2C12): 220 nM

CC(C)C[C@H](NC(=O)[C@H](Cc1ccccn1)NS(=O)(=O)c1cccc2cccnc12)B(O)O [MG-347]
Ki [1, 2]: 29 nM | IC50 (C2C12 cells): 13000 nM

CC(C)C[C@H](NC(=O)CCc1ccccc1)B(O)O [MG-313]
IC50 (C2C12 cells; Mus musculus, C2C12): 3500 nM

CC(C)C[C@H](NC(=O)[C@H](Cc1ccc(F)cc1)NC(=O)c1cnccn1)B(O)O [MG-382]
Ki [1, 2]: 0.95 nM

CC(C)C[C@H](NC(=O)[C@@H]1C[C@@H](O)CN1)B(O)O [MG-348]
Ki [1, 2]: 21 nM

CC(C)C[C@H](NC(=O)[C@@H](N)Cc1cccnc1)B(O)O [MG-294]
Ki [1, 2]: 152 nM

CC(C)C[C@H](NC(=O)[C@@H]1CCN1)B(O)O [MG-369]
Ki [1, 2]: 24.2 nM

CC(C)C[C@H](NC(=O)[C@H](Cc1ccccc1)NS(=O)(=O)c1cccc2cccnc12)B(O)O [MG-380]
Ki [1, 2]: 4.4 nM

CC(=O)N1Cc2[nH]c3ccccc3c2C[C@H]1C(=O)N[C@@H](CC(C)C)B(O)O [MG-344]
Ki [1, 2]: 51 nM

CC(C)C[C@H](NC(=O)[C@H](Cc1c[nH]c2ccccc12)NC(=O)N1CCOCC1)B(O)O [MG-285]
Ki [1, 2]: 3 nM | IC50 (C2C12 cells): 2400 nM

CC(C)C[C@@H](NC(=O)[C@H](Cc1ccc(F)cc1)NC(=O)c1ccccn1)B(O)O [MG-383]
Ki [1, 2]: 0.84 nM

CC(C)CC(NC(=O)C(CC(C)C)NC(=O)C(CC(C)C)NC(=O)OCc1ccccc1)B1OC2CC3CC(C3(C)C)C2(C)O1 (stereo not shown) [MG-261]
Ki [1, 2]: 0.032 nM

CC(C)C[C@H](NC(=O)[C@H](Cc1cccc2ccccc12)NC(=O)N1CCOCC1)B(O)O [MG-273, N-(4-Morpholine)carbonyl-β-(1-naphthyl)-L-alanine-L-leucine Boronic Acid]
Ki (Cathepsin B): 200000 nM | Ki [1, 2]: 0.18 nM | Ki ([1]; Table IV): 0.18 nM | IC50 (C2C12 cells; Mus musculus, C2C12): 140 nM

CC(C)C[C@H](NC(=O)[C@H](Cc1cccc2ccccc12)NC(=O)c1ccccc1)B(O)O [MG-328]
Ki [1, 2]: 0.088 nM | IC50 (C2C12 cells): 69 nM

CC(C)C[C@H](NC(=O)[C@H](Cc1ccccn1)NC(=O)N1CCOCC1)B(O)O [MG-312]
Ki [1, 2]: 6.3 nM | IC50 (C2C12 cells): 1100 nM

CC(C)C[C@H](NC(=O)[C@H](Cc1cccc2ccccc12)NC(=O)OCc1ccccc1)B(O)O [MG-270]
Ki [1, 2]: 0.083 nM | IC50 (C2C12 cells): 730 nM

CC(C)C[C@H](NC(=O)[C@H](Cc1cccc2ccccc12)NC(=O)c1cnc2ccccc2n1)B(O)O [MG-299]
Ki [1, 2]: 0.14 nM | IC50 (C2C12 cells): 280 nM

CC(C)C[C@H](NC(=O)[C@H](CCc1ccccc1)NC(=O)c1ccc2ccccc2n1)B(O)O [MG-325, N-(2quinoline)carbonyl-L-homophenylalanine-L-leucine boronic acid]
Ki [1, 2]: 2.8 nM | IC50 (C2C12 cells; Mus musculus, C2C12): 1100 nM

CC(C)CC(NC(=O)C1NCCc2ccccc21)B(O)O (stereo not shown) [MG-337]
Ki [1, 2]: 230 nM

CC(C)C[C@H](NC(=O)[C@H](Cc1cccc2ccccc12)NC(=O)N1CCOCC1)B1OCCNCCO1 [MG-286, Diethanolamine N-(4-Morpholine)carbonyl-β-(1-naphthyl)-L-alanine-L-leucine Boronate]
Ki [1, 2]: 0.15 nM | IC50 (C2C12 cells; Mus musculus, C2C12): 95 nM

CC(C)C[C@H](NC(=O)[C@H](Cc1ccccc1)NC(=O)c1ccccc1)B(O)O [MG-353]
Ki [1, 2]: 0.15 nM
